Laboratory results reported in US12201626B2, “Bifunctional compositions for the treatment of cancer” (ARMACEUTICA, INC., priority 2018, dated 2025).

What was measured:
Calf Thymus DNA = assay: UV-Visible spectrophotometric titration; assay type: binding; settings: PND 22.8 μM, Tris/HCl buffer, CT DNA additions
Experimental: UV-Visible measurements were taken in a Varian Cary 100 spectrophotometer. Calf Thymus (CT) DNA and buffers were purchased from Sigma Aldrich. The binding constant of PND with CT DNA was determined by absorption titration at room temperature through stepwise addition of a CT DNA solution (10.1 mM; 5 μL additions) in buffer (5 mM Tris/HCl, 50 mM NaCl, pH=7.39) over a 2 mL working solution of PND (22.8 μM) in the same buffer. Absorption spectra were recorded at 424 nm and the titration was terminated when saturation was reached. In order to determine the binding affinity, the data was fitted to the Scatchard equation r/Cf=K(n−r) (McGhee and von Hippel plots), where r is the number of moles of PND bound to 1 mol of CT DNA, n is the number of equivalent binding sites, and K is the affinity of the complex for those binding sites. Concentrations of free (Cf) and bound (Cb) complexes were calculated from Cf=C(1−α) and Cb=C−Cf, respectively, where C is the total PND concentration. The fraction of the bound complex (α) was calculated from α=(Af−A)/(Af−Ab), where Af and Ab are the absorbances of the free and fully bound drug at the selected wavelengths, and A is the absorbance at any given point during the titration. The plot of r/Cf vs. r gives the binding constant Kb as the slope of the graph. All experiments were performed in triplicate and values of Kb were averaged.

MDA-MB-231 cells [1] = assay: Mitochondrial membrane potential, JC-1 flow cytometry; assay type: cell-based, human; settings: 6 h; vs untreated and solvent treated cells
Experimental: (§1) After treatment, the cells were harvested and stained with 2 μM of the fluorophore 5,5′,6,6′-tetrachloro-1,1′,3,3′-tetraethylbenzimidazolylcarbocyanine iodide (JC-1) following manufacturer's instructions (MitoProbe; Life Technologies, Grand Island, NY, USA). Cells with healthy polarized mitochondria favour JC-1 to form aggregates, which emit a red signal. […] Similar controls as above were concurrently analysed. Data acquisition and analysis were achieved by using CXP software (Beckman Coulter). Each data point was analysed in triplicate.

HL-60 cells [2] = assay: as above; assay type: cell-based, human; settings: 6 h; vs untreated and solvent treated cells
Experimental: as §1

MDA-MB-231 cells [3] = assay: Cell cycle profile and DNA fragmentation, DAPI flow cytometry; assay type: cell-based, human; settings: 72 h
Experimental: (§2) Asynchronous cultures in the exponential growth phase of MDA-MB-231 and HL-60 cells in 24-well plates were treated with several doses of PND. After 72 h of incubation, cells were centrifuged and treated as in the previous section, fixed, permeabilized and stained with a DNA intercalating fluorophore, 4,6-Diamidino-2-phenylindole (DAPI); those three steps were accomplished by adding to the cells 200 μl of a single nuclear isolation medium (NIM)-DAPI solution (Beckman Coulter). The cell suspension was then incubated for an additional 3 min at room temperature in the dark. The controls included in the series of experiments were similar to those described for the above experiments. Approximately, 20,000 events/cells were collected per sample by using a flow cytometer equipped with a solid state 405 nm laser (Gallios; Beckman Coulter). The acquisition and distribution of cell subpopulations within each cell cycle facets were accomplished by utilizing Kaluza flow cytometry software (Beckman Coulter). Additionally, doublets were effectively eliminated by including a single cells gate in the acquisition cell cycle protocol.

HL-60 cells [4] = assay: as above; assay type: cell-based, human; settings: 72 h
Experimental: as §2

[5] = concentration-dependent, P<0.0005

SMILES: COC1=CC=C2Nc3cc(Cl)ccc3C(N=C3C=C(CN4CCCC4)C(=O)C(CN4CCCC4)=C3)=C2N1 [PND, 4-[(7-chloro-2-methoxy-1,5-dihydrobenzo[b][1,5]naphthyridin-10-yl)imino]-2,6-bis(pyrrolidin-1-ylmethyl)cyclohexa-2,5-dien-1-one]
- hypochromic effect at 424 nm (Calf Thymus DNA): 39%
- red-shift of absorbance maximum at 424 nm (Calf Thymus DNA): 8 nm
- mitochondrial depolarization (Δψm, JC-1) (MDA-MB-231 cells [1]): significant mitochondrial depolarization
- mitochondrial depolarization (Δψm, JC-1) (HL-60 cells [2]): significant mitochondrial depolarization
- G0/G1 cell subpopulation (MDA-MB-231 cells [3]): significant decrease
- DNA fragmentation (sub-G0/G1 subpopulation) (MDA-MB-231 cells [3]; [5]): significant increase
- S and G2/M subpopulations (MDA-MB-231 cells [3]; vs PBS and untreated controls): decreased
- decrease of G0/G1 cell subpopulation (HL-60 cells [4]): not observed
- DNA fragmentation (sub-G0/G1 subpopulation) (HL-60 cells [4]; [5]): significant increase
- S and G2/M subpopulations (HL-60 cells [4]; vs PBS and untreated controls): decreased
